Results reported in ChEMBL document CHEMBL3779890, “Novel prodrugs with a spontaneous cleavable guanidine moiety” (Bioorg Med Chem Lett, 2016).
≈ marks a conversion by molar mass, not a printed value.

Assays:
[1] = Prodrug conversion in PBS assessed as half life for 50% release of Quinine in pH 7.4 at 37 degC after 1 hr by ESI-mass spectrometry; type: ADME; settings: buffer, pH 7.4, 1 h
[2] = Solubility of the compound in water at room temperature after 15 mins by HPLC analysis; type: physicochemical
[3] = Stability of the compound in methanol-CH3CN at 4 degC after 1 month by HPLC analysis; type: physicochemical; settings: 730.5 h
[4] = Prodrug conversion in PBS assessed as half life for 50% release of Phenytoin in pH 7.4 at 37 degC after 1 hr by ESI-mass spectrometry; type: ADME; settings: buffer, pH 7.4, 1 h
[5] = Prodrug conversion in PBS assessed as half life for 50% release of Sulfathiazole in pH 7.4 at 37 degC after 1 hr by ESI-mass spectrometry; type: ADME; settings: buffer, pH 7.4, 1 h
[6] = Prodrug conversion in PBS assessed as half life for 50% release of Quinine in pH 7.4 at 37 degC by ESI-mass spectrometry; type: ADME; settings: buffer, TDE = time-dependent effect
[7] = Prodrug conversion in PBS assessed as half life for 50% release of 2-Aminobenzimidazole in pH 7.4 at 37 degC after 1 hr by ESI-mass spectrometry; type: ADME; settings: buffer, pH 7.4, 1 h
[8] = Prodrug conversion in PBS assessed as half life for 50% release of ritonavir in pH 7.4 at 37 degC after 1 hr by ESI-mass spectrometry; type: ADME; settings: buffer, pH 7.4, 1 h

## C=C[C@@H]1CN2CC[C@H]1C[C@H]2[C@H](OC(=O)CCNC(=N)N)c1ccnc2ccc(OC)cc12.O=C(O)C(F)(F)F
[1]
  t1/2: 1.1 min
[2]
  solubility at 0.25 h: > 10 mg/mL
[3]
  Stability: Stable

## N=C(N)NCC(=O)N1C(=O)NC(c2ccccc2)(c2ccccc2)C1=O.O=C(O)C(F)(F)F
[4]
  t1/2: 13 min
[2]
  solubility at 0.25 h: 10.2 mg/mL
[3]
  Stability: Stable

## C=C[C@@H]1CN2CC[C@H]1C[C@H]2[C@H](OC(=O)CNC(=N)N)c1ccnc2ccc(OC)cc12.O=C(O)C(F)(F)F
[1]
  t1/2: < 1 min

## C[C@H](NC(=N)N)C(=O)Nc1ccc(S(=O)(=O)Nc2nccs2)cc1.O=C(O)C(F)(F)F
[5]
  t1/2: 40 min
[2]
  solubility at 0.25 h: 7.1 mg/mL
[3]
  Stability: Stable

## Nc1ccc(S(=O)(=O)Nc2nccs2)cc1.O=C(O)C(F)(F)F
[2]
  solubility at 0.25 h: 0.0014 mg/mL

## CN(CC(=O)N1C(=O)NC(c2ccccc2)(c2ccccc2)C1=O)C(=N)N.O=C(O)C(F)(F)F
[4]
  t1/2: 0.78 min

## C=C[C@@H]1CN2CC[C@H]1C[C@H]2[C@H](OC(=O)CCCN)c1ccnc2ccc(OC)cc12.O=C(O)C(F)(F)F
[1]
  t1/2: 102 min
[6]
  Drug metabolism: tde

## N=C(N)NCC(=O)Nc1nc2ccccc2[nH]1.O=C(O)C(F)(F)F
[7]
  t1/2: 38 min

## C[C@H](NC(=N)N)C(=O)N1C(=O)NC(c2ccccc2)(c2ccccc2)C1=O.O=C(O)C(F)(F)F
[4]
  t1/2: 1.1 min

## O=C1NC(=O)C(c2ccccc2)(c2ccccc2)N1 [PHENYTOIN]
[2]
  solubility at 0.25 h: 0.0063 mg/mL (≈ 25 µM)

## CC(C)c1nc(CN(C)C(=O)N[C@H](C(=O)N[C@@H](Cc2ccccc2)C[C@H](O)[C@H](Cc2ccccc2)NC(=O)OCc2cncs2)C(C)C)cs1 [RITONAVIR]
[8]
  t1/2: 42 h
